We go through 17 compounds from PubChem BioAssay (NCI).

Common to all, as to test: NCI tumour cell line growth inhibition, 48 h
Assay [1] relates to A549 NSCLC.
The subject of assay [2] is CAKI-1 renal.
Assay [3] concerns EKVX NSCLC.
In assay [4] the test system is HCC-2998 colon.
Assay [5] has as its system IGROV1 ovarian.
For assay [6], the system named is OVCAR-5 ovarian.
For assay [7], the system named is SF-539 CNS.
Assay [8] relates to SNB-19 CNS.
Assay [9] relates to TK-10 renal.
Assay [10] deals with UO-31 renal.

Values joined by “and” are separate entries in the source; they are usually repeats but may differ in a detail not shown here. Equal values may be shown once.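 Interpolation was linear, between the two tested concentrations surrounding the appropriate level; five concentrations were tested over 48 hours in 96-well plates. GI50: concentration for 50% inhibition of growth. TGI: concentration producing complete growth inhibition.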

On to `COc1ccccc1-c1nccc(COc2ccccc2C[C@@H](Oc2ncnc3sc(-c4ccc(F)cc4)c(-c4ccc(OCCN5CCN(C)CC5)c(Cl)c4C)c23)C(=O)O)n1`, for which the GI50 was 10 µM in [1]; 2.66 µM in assay [2]; 1.32 µM in assay [3]; 1.31 µM in assay [4]; 2.27 µM in assay [5]; 2.12 µM in assay [6]. In addition, the GI50 in [7] is 1.21 µM; in assay [8], 2.05 µM; in assay [9] it was 3.46 µM; in assay [10], 6.12 µM. The TGI was 31.7 µM in assay [1]; 9.89 µM in [2]; 5.03 µM in [3]; 2.78 µM in assay [4]; 6.08 µM in assay [5]; 6.25 µM in assay [6]. Also, the TGI worked out at 2.59 µM in assay [7], 4.58 µM in [8], 14.9 µM in assay [9] and 17.5 µM in assay [10].

For the compound `CN1CCN(CCCOc2ccc3ncnc(Nc4ccc(Oc5cccc(F)c5)c(Cl)c4)c3c2)CC1`, the GI50 in assay [1] was 1.56 µM; in assay [2], 1.52 µM; in assay [3], 1.31 µM; in [4] it was 1.64 µM; in [5], 0.711 µM; in assay [6] it was 1.67 µM. Besides, the GI50 in assay [7] was 1.54 µM; in assay [8], 1.64 µM; in assay [9], 1.05 µM; in assay [10], 1.11 µM. Also, the TGI in [1] came to 3.24 µM; in assay [2], 3.1 µM; in assay [3], 3.56 µM; in assay [4], 3.06 µM; in [5], 2.23 µM; in assay [6], 3.29 µM. For the same compound, the TGI in [7] was determined as 2.93 µM; in assay [8], 3.16 µM; in [9], 2.32 µM; in assay [10] it was 2.3 µM.

Take `COc1ccc(-c2nn(-c3cccc(Cl)c3)cc2/C=C2\C(=N)N(c3ccccc3)N=C2N)cc1`: the GI50 in assay [1] was 0.54 µM; in assay [2] it was 0.229 µM; in assay [3], 1.5 µM; in [4], 0.627 µM; in assay [5], 2.1 µM; in assay [6], 2.08 µM. In addition, the GI50 in assay [7] is 0.617 µM; in assay [8], 8.58 µM; in assay [9] it was 7.77 µM; in assay [10], 0.587 µM. Besides, the TGI was above 82.2 µM in assay [1]; 0.844 µM in assay [2]; 60.5 µM in assay [3]; 4.42 µM in assay [4]; above 84.8 µM in assay [5]; above 65.9 µM in [6]. Also, the TGI in assay [7] is 3.52 µM; in assay [8], above 100 µM; in assay [9], above 95.8 µM; in assay [10], 25.8 µM.

Consider `O=c1ncccn1C1OC(CO)C(O)C1F` (centres undefined), for which the TGI in assay [1], in assay [2], in assay [3], in assay [4], in [5] and in assay [6] was above 100 µM throughout. Besides, the TGI in assay [7], in assay [8], in assay [9] and in assay [10] was above 100 µM in each case. Moreover, the GI50 in [7] and in assay [10] was above 100 µM in each case.

Take `CCCC(=O)Nc1cn(COC)c(C(=O)N2C[C@H]3C[C@@]34C2=CC(=O)c2[nH]cc(C)c24)n1`: the TGI in assay [1] was 50 µM and > 100 µM; in assay [2], 17.3 µM and > 100 µM; in assay [3] it was 39 µM and > 100 µM; in assay [4], 9.14 µM and 6.59 µM; in assay [5] it was 50 µM and > 100 µM; in assay [6] it was 50 µM and > 100 µM. Besides, the TGI is 37.7 µM and 38.4 µM in [7]; 50 µM and > 100 µM in assay [8]; 46.2 µM in [9]; 28.1 µM and 73.1 µM in [10]. Also, the GI50 is 5.42 µM in assay [2]; 39.1 µM in [3]; 1.89 µM in assay [4]; 6.68 µM in assay [5]; 6.13 µM in [6]; 1.87 µM in assay [7]. Further, the GI50 in [8] was 10.4 µM; in [10] it was 3.47 µM.

Take `COc1ccc(-c2nn(-c3cccc(Cl)c3)cc2-c2cc(-c3cccs3)no2)cc1`: the GI50 in assay [1] was 3.56 µM; in [2] it was 2.05 µM; in assay [3], 2.07 µM; in assay [4] it was 3.47 µM; in [5] it was 4 µM; in assay [6], 7.63 µM. The GI50 is 7.47 µM in assay [7], 6.09 µM in [8], 5.21 µM in [9] and 2.56 µM in [10]. The TGI worked out at 24.5 µM in assay [1]; 6.02 µM in [2]; 13.5 µM in [3]; 14.6 µM in [4]; 16.2 µM in [5]; 74.1 µM in assay [6]. Further, the TGI was 36.6 µM in assay [7], above 100 µM in assay [8], 43.8 µM in assay [9] and 11.8 µM in [10].

Take `COC(=O)C1=C(C(=O)OC)C(C(=O)OC)C(C(=O)OC)C(C(=O)OC)(C(=O)OC)C(C(=O)OC)=C1C(=O)OC` (centres undefined): the TGI in [1] is 46.4 µM; in [2] it was 36.7 µM; in [3], 35.4 µM; in assay [4], 31 µM; in assay [5] it was 36.8 µM; in [6] it was 35.3 µM. Moreover, the TGI in assay [7] was determined as 36.7 µM; in assay [8], 33 µM; in assay [9], 29 µM; in [10], 30.7 µM.

Turning to `O=C1Cc2ccccc2CCc2ccccc21`, the TGI in assay [1], in assay [2], in assay [3], in [4], in assay [5] and in assay [6] was above 100 µM each time. Further, the TGI in assay [7], in assay [8], in assay [9] and in assay [10] was above 100 µM each time.

On to `Cc1ccc(NCCNCC(O)CO)c2c(=O)c3ccccc3sc12` (centres undefined), for which the GI50 in assay [1] is 0.849 µM; in [2], 1.64 µM; in assay [3], 1.83 µM; in [4], 1.48 µM; in [5] it was 1.61 µM; in assay [6] it was 1.74 µM. Further, the GI50 in assay [7] is 1.67 µM; in assay [8] it was 1.52 µM; in assay [9], 1.51 µM; in assay [10], 1.12 µM. Also, the TGI was 2.38 µM in assay [1]; 3.38 µM in assay [2]; 3.77 µM in assay [3]; 3.05 µM in assay [4]; 3.43 µM in assay [5]; 3.67 µM in [6]. For the same compound, the TGI was determined as 3.19 µM in assay [7], 3.23 µM in assay [8], 3.1 µM in [9] and 2.48 µM in [10].

Turning to `O=C(Nc1cccc(Cl)c1)c1cc(Cl)ccc1O`, the GI50 is 2.67 µM in assay [1]; 0.837 µM in assay [2]; 1.83 µM in assay [3]; 2.94 µM in assay [4]; 1.61 µM in [5]; 3.48 µM in assay [6]. Also, the GI50 is 0.674 µM in [7], 0.481 µM in assay [8], 4.36 µM in [9] and 0.369 µM in assay [10]. Also, the TGI is above 79.3 µM in assay [1]; 5.79 µM in [2]; above 26.3 µM in [3]; above 29.6 µM in [4]; above 58 µM in [5]; above 100 µM in assay [6]. In addition, the TGI in [7] came out at 12.4 µM; in [8], 36.6 µM; in assay [9], 12.6 µM; in assay [10], 7.08 µM.

`Oc1cccc(-c2nc(N3CCOCC3)c3oc4ncccc4c3n2)c1`: the GI50 in assay [1] is 0.317 µM and 0.225 µM; in [2], 0.318 µM and 0.342 µM; in assay [3] it was 0.213 µM; in assay [4], 1.85 µM and 0.401 µM; in assay [5] it was 0.327 µM and 0.425 µM; in assay [6], 2.38 µM and 2.84 µM. The GI50 in assay [7] was 0.137 µM and 0.131 µM; in [8] it was 0.358 µM and 0.247 µM; in assay [9], 1.26 µM and 1.51 µM; in assay [10], 0.0354 µM and 0.0315 µM. For the same compound, the TGI in assay [2] is 2.24 µM and 7.38 µM; in assay [3], 0.82 µM; in [4] it was 8.87 µM and > 33.9 µM; in [5], 1.47 µM and 2.23 µM; in [6], above 26.6 µM; in assay [7], 0.594 µM and 0.635 µM. Also, the TGI in assay [8] was 7.43 µM and 6.83 µM; in [9], 4.01 µM and 4.58 µM; in assay [10], 0.571 µM and 0.449 µM.

With `COc1cc(/C=C2\C(=O)Nc3ccc(Br)cc32)cc(OC)c1OC`, the GI50 in [1] is 10.3 µM; in assay [2], 1.85 µM; in [3] it was 14.3 µM; in [4], 57.4 µM; in assay [5], 2.29 µM; in assay [6] it was 30.6 µM. For the same compound, the GI50 was 26.7 µM in [7], 29.8 µM in assay [8], 4.65 µM in assay [9] and 6.73 µM in assay [10]. The TGI was above 100 µM in [1]; above 44.1 µM in assay [2]; above 100 µM in [3]; above 100 µM in assay [4]; 17 µM in [5]; above 100 µM in assay [6]. Also, the TGI is above 100 µM in [7], above 100 µM in assay [8], 30.1 µM in assay [9] and above 100 µM in assay [10].

For `Cc1cc(C)c2nccc(NCCCN(C)C)c2c1[N+](=O)[O-]`, the TGI was above 100 µM in assay [1]; above 100 µM in assay [2]; above 100 µM in [3]; 51.1 µM in assay [4]; 92.3 µM in assay [5]; above 100 µM in assay [6]. Also, the TGI in [7] was 84.8 µM; in assay [8] it was above 100 µM; in assay [9] it was above 100 µM; in assay [10], 42.8 µM.

For `CC(C)(C)OC(=O)n1c(Cl)c(C(=O)N=C=S)c2ccccc21`, the GI50 is 50 µM in assay [1]; 34.6 µM in assay [2]; 29.6 µM in [3]; 38.9 µM in [4]; 9.65 µM in [5]; 23 µM in [6]. Further, the GI50 in assay [7] is 23 µM; in [8], 44.4 µM; in assay [9], 27.3 µM; in assay [10], 18.5 µM. The TGI was above 100 µM in assay [1]; 92 µM in assay [2]; 98.7 µM in assay [3]; above 100 µM in assay [4]; 34.7 µM in assay [5]; 94.3 µM in [6]. Besides, the TGI in assay [7] was 55.1 µM; in assay [8], above 100 µM; in [9], above 100 µM; in [10], 35.8 µM.

With `OCCN(CCO)c1ncnc2c1sc(=S)n2-c1ccccc1`, the TGI in assay [1], in assay [2], in assay [3], in assay [4], in assay [5] and in assay [6] was above 100 µM throughout. The TGI in [7], in assay [8], in assay [9] and in assay [10] was above 100 µM each time.

With `N#Cc1c(-c2ccc(Cl)cc2)csc1NC(=O)Nc1cccc(C(F)(F)F)c1`, the GI50 in assay [1] was 2.57 µM; in assay [2], 2.7 µM; in assay [3], 1.97 µM; in assay [4] it was 2.75 µM; in assay [5] it was 3.51 µM; in [6], 2.98 µM. Also, the GI50 in [7] was 2.06 µM; in assay [8] it was 3.39 µM; in assay [9], 2.23 µM; in assay [10], 1.8 µM. Besides, the TGI in assay [1] came out at 11.4 µM; in assay [2] it was 10.5 µM; in assay [3], 9.75 µM; in assay [4], 7.97 µM; in assay [5] it was 14.2 µM; in [6], 12.9 µM. The TGI in assay [7] is 4.85 µM; in assay [8], 13.4 µM; in assay [9], 8.95 µM; in assay [10], 5.48 µM.

As to `CCC1(Cl)C(=O)NC(=O)N(C2CC(O)C(CO)O2)C1N=[N+]=[N-]` (centres undefined), the TGI in assay [1], in assay [2], in assay [3], in assay [4], in [5] and in assay [6] was above 100 µM in each case. Also, the TGI in assay [7], in assay [8], in [9] and in assay [10] was above 100 µM each time.
